According to PubChem BioAssay (NCI):
“And” between values parts separate entries of the source, which are not always exact repeats. Equal entries are not always repeated.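 Tested at 5 concentrations; 48 h exposure; 96-well plates; endpoints linearly interpolated, else capped at highest concentration. The concentration for 50% growth inhibition is given as GI50. Definition used: TGI = concentration required for complete inhibition of growth.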

Key:
Test in all cases: NCI anticancer screen, dose series, 48 h
SK-MEL-28 melanoma = system: SK-MEL-28 melanoma
NCI-H460 lung = system: NCI-H460 lung
BT-549 breast = system: BT-549 breast
MDA-MB-435 = system: MDA-MB-435
TK-10 renal = system: TK-10 renal
U251 CNS = system: U251 CNS
UACC-62 melanoma = system: UACC-62 melanoma
NCI-H226 lung = system: NCI-H226 lung
OVCAR-4 ovarian = system: OVCAR-4 ovarian
ACHN renal = system: ACHN renal
MOLT-4 leukemia = system: MOLT-4 leukemia
A549 NSCLC = system: A549 NSCLC
PC-3 prostate = system: PC-3 prostate
MCF7 breast = system: MCF7 breast
UACC-257 melanoma = system: UACC-257 melanoma
MDA-MB-231 breast = system: MDA-MB-231 breast
HOP-92 NSCLC = system: HOP-92 NSCLC
SK-MEL-5 melanoma = system: SK-MEL-5 melanoma
HL-60(TB) leukemia = system: HL-60(TB) leukemia
HCC-2998 colon = system: HCC-2998 colon
LOX IMVI melanoma = system: LOX IMVI melanoma
UO-31 renal = system: UO-31 renal
OVCAR-8 ovarian = system: OVCAR-8 ovarian
RXF 393 renal = system: RXF 393 renal
SK-MEL-2 melanoma = system: SK-MEL-2 melanoma
SF-539 CNS = system: SF-539 CNS
786-0 renal = system: 786-0 renal
RPMI-8226 leukemia = system: RPMI-8226 leukemia
EKVX NSCLC = system: EKVX NSCLC
HS 578T breast = system: HS 578T breast
M14 melanoma = system: M14 melanoma
SN12C renal = system: SN12C renal
CAKI-1 renal = system: CAKI-1 renal
OVCAR-5 ovarian = system: OVCAR-5 ovarian
SF-268 CNS = system: SF-268 CNS
KM12 colon = system: KM12 colon
NCI-H23 lung = system: NCI-H23 lung
HOP-62 NSCLC = system: HOP-62 NSCLC
K-562 leukemia = system: K-562 leukemia
COLO 205 colon = system: COLO 205 colon
IGROV1 ovarian = system: IGROV1 ovarian
OVCAR-3 ovarian = system: OVCAR-3 ovarian
SW-620 colon = system: SW-620 colon
SNB-19 CNS = system: SNB-19 CNS
MALME-3M melanoma = system: MALME-3M melanoma
SF-295 CNS = system: SF-295 CNS
SNB-75 CNS = system: SNB-75 CNS
HCT-15 colon = system: HCT-15 colon
HCT-116 colon = system: HCT-116 colon
NCI-H522 lung = system: NCI-H522 lung
HT29 colon = system: HT29 colon
A498 renal = system: A498 renal
DU-145 prostate = system: DU-145 prostate
SR leukemia = system: SR leukemia
SK-OV-3 ovarian = system: SK-OV-3 ovarian
CCRF-CEM leukemia = system: CCRF-CEM leukemia
NCI/ADR-RES ovarian = system: NCI/ADR-RES ovarian
T-47D breast = system: T-47D breast

In the case of `C/C(=C\c1ccc(Cl)c(Cl)c1)[N+](=O)[O-]`, the GI50 (SK-MEL-28 melanoma) is reported as 1.75 µM, the TGI (SK-MEL-28 melanoma) is reported as 3.14 µM and 4.81 µM and the GI50 (NCI-H460 lung) is reported as 3.15 µM. For the same molecule, the TGI (NCI-H460 lung) was 14 µM and > 100 µM, the GI50 (BT-549 breast) was 7.55 µM and the TGI (BT-549 breast) was 20.1 µM. The GI50 (MDA-MB-435) was 1.84 µM, the TGI (MDA-MB-435) was 3.71 µM and 4.55 µM and the GI50 (TK-10 renal) was 1.67 µM. The TGI (TK-10 renal) was 3.19 µM and 3.6 µM, the TGI (U251 CNS) was 2.71 µM and the GI50 (UACC-62 melanoma) was 1.74 µM. The TGI (UACC-62 melanoma) was 3.51 µM and 4.8 µM, the GI50 (NCI-H226 lung) was 17.5 µM and the TGI (NCI-H226 lung) was 42.6 µM and 5.26 µM. For the same molecule, the TGI (OVCAR-4 ovarian) was 3.09 µM, the GI50 (ACHN renal) was 1.77 µM and the TGI (ACHN renal) was 3.6 µM and 3.82 µM. For the same molecule, the GI50 (MOLT-4 leukemia) was 2.58 µM, the TGI (MOLT-4 leukemia) was greater than 100 µM and the TGI (A549 NSCLC) was 3.41 µM and 4.52 µM. For the same molecule, the GI50 (PC-3 prostate) was 1.85 µM, the TGI (PC-3 prostate) was 3.81 µM and the TGI (MCF7 breast) was 17.3 µM. The TGI (UACC-257 melanoma) was 2.56 µM and 2.84 µM, the TGI (MDA-MB-231 breast) was 3.94 µM and the GI50 (HOP-92 NSCLC) was 1.43 µM. For the same molecule, the TGI (HOP-92 NSCLC) was 2.99 µM, the GI50 (SK-MEL-5 melanoma) was 3.05 µM and the TGI (SK-MEL-5 melanoma) was 11.3 µM and 3.94 µM. For the same molecule, the GI50 (HL-60(TB) leukemia) was 1.94 µM, the TGI (HL-60(TB) leukemia) was 6.02 µM and 5.95 µM and the TGI (HCC-2998 colon) was 8.25 µM. For the same molecule, the GI50 (LOX IMVI melanoma) was 1.19 µM, the TGI (LOX IMVI melanoma) was 2.62 µM and 0.955 µM and the TGI (UO-31 renal) was 2.61 µM and 2.66 µM. It also gave a GI50 (OVCAR-8 ovarian) of 1.62 µM, a TGI (OVCAR-8 ovarian) of 3.4 µM and a GI50 (RXF 393 renal) of 1.51 µM. For the same molecule, the TGI (RXF 393 renal) was 2.9 µM, the TGI (SK-MEL-2 melanoma) was 4.05 µM and 4.03 µM and the TGI (SF-539 CNS) was 5.77 µM. For the same molecule, the TGI (786-0 renal) was 3.18 µM, the GI50 (RPMI-8226 leukemia) was 0.538 µM and the TGI (RPMI-8226 leukemia) was 3.17 µM. The TGI (EKVX NSCLC) was 3.9 µM and 4.58 µM, the TGI (HS 578T breast) was 9.44 µM and the GI50 (M14 melanoma) was 1.57 µM. For the same molecule, the TGI (M14 melanoma) was 3.13 µM and 3.16 µM, the TGI (SN12C renal) was 4.08 µM and the GI50 (CAKI-1 renal) was 1.1 µM. For the same molecule, the TGI (CAKI-1 renal) was 2.51 µM, the GI50 (OVCAR-5 ovarian) was 2.25 µM and the TGI (OVCAR-5 ovarian) was 5.09 µM and 4.62 µM. For the same molecule, the GI50 (SF-268 CNS) was 1.66 µM, the TGI (SF-268 CNS) was 3.31 µM and 3.33 µM and the GI50 (KM12 colon) was 1.71 µM. For the same molecule, the TGI (KM12 colon) was 3.29 µM and 4.16 µM, the TGI (NCI-H23 lung) was 5.36 µM and the TGI (HOP-62 NSCLC) was 3.15 µM. The GI50 (K-562 leukemia) was 0.731 µM, the GI50 (COLO 205 colon) was 1.78 µM and the TGI (COLO 205 colon) was 3.27 µM. For the same molecule, the TGI (IGROV1 ovarian) was 3.85 µM, the TGI (OVCAR-3 ovarian) was 3.08 µM and 3.47 µM and the GI50 (SW-620 colon) was 1.33 µM. For the same molecule, the TGI (SNB-19 CNS) was 9.45 µM, the GI50 (MALME-3M melanoma) was 1.61 µM and the TGI (MALME-3M melanoma) was 3.36 µM and 3.83 µM. The GI50 (SF-295 CNS) was 2.19 µM, the TGI (SF-295 CNS) was 5.72 µM and 8.01 µM and the GI50 (SNB-75 CNS) was 1.46 µM. The TGI (HCT-15 colon) was 4.13 µM and 3.18 µM, the GI50 (HCT-116 colon) was 1.37 µM and the TGI (HCT-116 colon) was 2.85 µM and 10.2 µM. It also gave a TGI (NCI-H522 lung) of 3.14 µM, a TGI (HT29 colon) of 5.9 µM and a GI50 (A498 renal) of 8.21 µM. The TGI (A498 renal) was 21.5 µM and 14.8 µM, the TGI (DU-145 prostate) was 2.92 µM and 3.12 µM and the GI50 (SR leukemia) was 2.38 µM. For the same molecule, the TGI (SR leukemia) was 11.4 µM and 6.68 µM, the GI50 (SK-OV-3 ovarian) was 16.3 µM and the TGI (SK-OV-3 ovarian) was 29.8 µM.
Work on `COC(=O)C1=CC(NC(=O)OCc2ccccc2)C(C(=O)c2ccccc2)C[C@@H]1Sc1ccccc1` (some centres not stated) yielded a TGI (HL-60(TB) leukemia) of 3.03 µM, a TGI (K-562 leukemia) of 7.72 µM and a TGI (CCRF-CEM leukemia) of 4.99 µM.
For `c1ccc(Cn2c(-c3ccc(OC[C@H](C4CCNCC4)n4c(-c5ccccc5)nc5ccccc54)cc3)nc3ccccc32)cc1`, the GI50 (TK-10 renal) was 1.63 µM, the TGI (TK-10 renal) was 3.08 µM and the GI50 (NCI/ADR-RES ovarian) was 7.74 µM. It also gave a TGI (NCI/ADR-RES ovarian) greater than 80.7 µM, a GI50 (HS 578T breast) of 2 µM and a TGI (HS 578T breast) of 4.79 µM. For the same molecule, the GI50 (T-47D breast) was 2.19 µM, the TGI (T-47D breast) was 4.72 µM and the GI50 (A498 renal) was 1.48 µM. The TGI (A498 renal) was 2.83 µM.
